Where two headings read alike, the source gives them in different places. Starred links: 1 amine or outer side, 2 acyl side, 3 side chain; linkers in the order of their positions; H or OH if unused. Non-standard residues stand in square brackets, D forms with d. Residues, ends and D or L forms follow the SMILES beside them. Groups on a side chain read outwards from the residue. *: point of attachment. C20 diacid = O=C(O)CCCCCCCCCCCCCCCCCCC(=O)*; γGlu = O=C(O)[C@H](CCC(=O)[*:2])N[*:1]; NMeI = CC[C@H](C)[C@H](NC)C(=O)O; Nle = CCCC[C@H](N)C(=O)O; AEEA = NCCOCCOCC(=O)O; Aib = CC(C)(N)C(=O)O
Tests used:
[1] = target: T1, hCRHR2 (Homo sapiens, UniProt Q13324); assay: HTRF cAMP assay, determination of hCRHR2 potency (peptide libraries 5 conc., purified peptides 11 conc.); format: cell-based
T1 sequence (Q13324 1-411): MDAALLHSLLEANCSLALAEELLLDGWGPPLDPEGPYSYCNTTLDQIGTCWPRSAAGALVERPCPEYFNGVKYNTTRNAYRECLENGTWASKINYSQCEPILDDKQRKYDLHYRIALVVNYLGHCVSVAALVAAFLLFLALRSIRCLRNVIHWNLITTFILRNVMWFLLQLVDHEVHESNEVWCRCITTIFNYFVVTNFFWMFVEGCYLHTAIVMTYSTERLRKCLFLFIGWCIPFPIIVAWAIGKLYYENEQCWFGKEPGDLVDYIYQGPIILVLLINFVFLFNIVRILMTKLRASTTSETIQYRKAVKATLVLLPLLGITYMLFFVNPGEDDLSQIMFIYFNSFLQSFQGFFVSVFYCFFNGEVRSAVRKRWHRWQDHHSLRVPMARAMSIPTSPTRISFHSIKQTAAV
In short: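 Potency was read as cAMP accumulation in a stable CHO-K1 line expressing human CRHR2, used in suspension right after thawing. Detection relied on energy transfer from antibody-bound cryptate to d2-cAMP.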

[2] = target: T2, hCRHR1 (Homo sapiens, UniProt P34998); assay: HTRF cAMP assay, determination of hCRHR1 potency (peptide libraries 5 conc., purified peptides 11 conc.); format: cell-based
T2 sequence (P34998 24-415): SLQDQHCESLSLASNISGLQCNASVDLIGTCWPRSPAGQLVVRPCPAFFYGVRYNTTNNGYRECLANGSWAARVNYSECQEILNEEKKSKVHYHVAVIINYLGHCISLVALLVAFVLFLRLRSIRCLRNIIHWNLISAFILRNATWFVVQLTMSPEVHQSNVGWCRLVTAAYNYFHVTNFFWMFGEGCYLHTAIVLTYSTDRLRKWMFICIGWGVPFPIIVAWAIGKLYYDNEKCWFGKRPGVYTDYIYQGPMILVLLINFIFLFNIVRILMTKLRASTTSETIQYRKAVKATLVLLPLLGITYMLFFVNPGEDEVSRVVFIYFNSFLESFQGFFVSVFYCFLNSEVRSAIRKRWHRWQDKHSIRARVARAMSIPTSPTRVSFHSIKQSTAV
In short: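 CHO-K1 cells stably expressing human CRHR1, thawed from frozen stocks just before use, were stimulated in suspension with agonist peptides. cAMP was measured by HTRF competitive immunoassay (cryptate anti-cAMP antibody vs d2-cAMP).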

[3] = Table 4, library peptides having X^38 = Nle, read-out: hCRHR2 pEC50 (converted)
[4] = Table 4, library peptides having X^38 = Nle, read-out: hCRHR1 pEC50 (converted)
[5] = library peptides, matched molecular pairs L vs Nle in position X^38, read-out: Potency hCRHR2 pEC50 (converted)
[6] = library peptides, matched molecular pairs L vs Nle in position X^38, read-out: Potency hCRHR1 pEC50 (converted)

With `CCCC[C@H](NC(=O)[C@@H](NC(=O)[C@H](CCC(=O)O)NC(=O)[C@H](C)NC(=O)[C@H](CC(N)=O)NC(=O)C(C)(C)NC(=O)[C@H](CCCCNC(=O)COCCOCCNC(=O)COCCOCCNC(=O)CC[C@H](NC(=O)CC[C@H](NC(=O)CCCCCCCCCCCCCCCCCCC(=O)O)C(=O)O)C(=O)O)NC(=O)[C@H](C)NC(=O)[C@H](CCC(N)=O)NC(=O)[C@H](CCC(=O)O)NC(=O)[C@H](CCCNC(=N)N)NC(=O)[C@H](C)NC(=O)[C@H](C)NC(=O)[C@H](CCCNC(=N)N)NC(=O)[C@H](C)NC(=O)[C@H](CCCNC(=N)N)NC(=O)[C@H](C)NC(=O)[C@H](CCC(N)=O)NC(=O)[C@H](Cc1c[nH]cn1)NC(=O)[C@H](CC(C)C)NC(=O)[C@H](CC(C)C)NC(=O)[C@@H](NC(=O)[C@H](CCC(N)=O)NC(=O)[C@H](CC(C)C)NC(=O)[C@H](CC(C)C)NC(=O)CNC(=O)[C@@H](NC(=O)[C@@H]1CCCN1C(=O)[C@@H](NC(=O)[C@H](CC(=O)O)NC(=O)[C@H](CC(C)C)NC(=O)[C@H](CO)NC(=O)[C@H](CC(C)C)NC(=O)[C@@H](NC(=O)[C@@H](NC)[C@@H](C)CC)C(C)C)C(C)C)[C@@H](C)CC)[C@@H](C)CC)[C@@H](C)CC)C(=O)N[C@@H](C)C(=O)N[C@@H](CCC(=O)O)C(=O)N[C@H](C(N)=O)C(C)C` [compound 126] (H-[NMeI]VLSLDVPIGLLQILLHQARARAAREQAK([AEEA-AEEA-γGlu-γGlu-C20 diacid])[Aib]NAEI[Nle]AEV-NH2) the EC50 [1, 3] was 0.01 nM and the EC50 [2, 4] was 794 nM.

In the case of `CCCC[C@H](NC(=O)[C@@H](NC(=O)[C@H](CCC(=O)O)NC(=O)[C@H](C)NC(=O)[C@H](CC(N)=O)NC(=O)[C@@H](NC(=O)[C@H](CCCCNC(=O)COCCOCCNC(=O)COCCOCCNC(=O)CC[C@H](NC(=O)CC[C@H](NC(=O)CCCCCCCCCCCCCCCCCCC(=O)O)C(=O)O)C(=O)O)NC(=O)[C@H](C)NC(=O)[C@H](CCC(=O)O)NC(=O)[C@H](CCC(=O)O)NC(=O)[C@H](CCCNC(=N)N)NC(=O)[C@H](CC(C)C)NC(=O)[C@H](C)NC(=O)[C@H](CCCNC(=N)N)NC(=O)[C@H](C)NC(=O)[C@H](CCCNC(=N)N)NC(=O)[C@H](C)NC(=O)[C@H](CCC(N)=O)NC(=O)[C@H](CCC(=O)O)NC(=O)[C@H](CC(C)C)NC(=O)[C@H](CC(C)C)NC(=O)[C@@H](NC(=O)[C@H](CCC(N)=O)NC(=O)[C@H](CC(C)C)NC(=O)[C@H](CC(C)C)NC(=O)CNC(=O)[C@@H](NC(=O)[C@@H]1CCCN1C(=O)[C@@H](NC(=O)[C@H](CC(=O)O)NC(=O)[C@H](CC(C)C)NC(=O)[C@H](CO)NC(=O)[C@H](CC(C)C)NC(=O)[C@@H](NC(=O)[C@@H](N)[C@@H](C)CC)C(C)C)C(C)C)[C@@H](C)CC)[C@@H](C)CC)[C@@H](C)O)[C@@H](C)CC)C(=O)N[C@@H](C)C(=O)N[C@@H](CCC(=O)O)C(=O)N[C@H](C(N)=O)C(C)C` [compound 51] (H-IVLSLDVPIGLLQILLEQARARALREEAK([AEEA-AEEA-γGlu-γGlu-C20 diacid])TNAEI[Nle]AEV-NH2), the EC50 [1, 5] is reported as 0.794 nM and the EC50 [2, 6] is reported as 126000 nM.

In the case of `CCCC[C@H](NC(=O)[C@@H](NC(=O)[C@H](CCC(=O)O)NC(=O)[C@H](C)NC(=O)[C@H](CC(N)=O)NC(=O)[C@@H](NC(=O)[C@H](CCCCNC(=O)COCCOCCNC(=O)COCCOCCNC(=O)CC[C@H](NC(=O)CC[C@H](NC(=O)CCCCCCCCCCCCCCCCCCC(=O)O)C(=O)O)C(=O)O)NC(=O)[C@H](C)NC(=O)[C@H](CCC(N)=O)NC(=O)[C@H](CCC(=O)O)NC(=O)[C@H](CCCNC(=N)N)NC(=O)[C@H](CCC(N)=O)NC(=O)[C@H](C)NC(=O)[C@H](CCCNC(=N)N)NC(=O)[C@H](C)NC(=O)[C@H](CCCNC(=N)N)NC(=O)[C@H](C)NC(=O)[C@H](CCC(N)=O)NC(=O)[C@H](CCC(=O)O)NC(=O)[C@H](CC(C)C)NC(=O)[C@H](CC(C)C)NC(=O)[C@@H](NC(=O)[C@H](CCC(N)=O)NC(=O)[C@H](CC(C)C)NC(=O)[C@H](CC(C)C)NC(=O)CNC(=O)[C@@H](NC(=O)[C@@H]1CCCN1C(=O)[C@@H](NC(=O)[C@H](CC(=O)O)NC(=O)[C@H](CC(C)C)NC(=O)[C@H](CO)NC(=O)[C@H](CC(C)C)NC(=O)[C@@H](NC(=O)[C@@H](N)[C@@H](C)CC)C(C)C)C(C)C)[C@@H](C)CC)[C@@H](C)CC)[C@@H](C)O)[C@@H](C)CC)C(=O)N[C@@H](C)C(=O)N[C@@H](CCC(=O)O)C(=O)N[C@H](C(N)=O)C(C)C` [compound 57] (H-IVLSLDVPIGLLQILLEQARARAQREQAK([AEEA-AEEA-γGlu-γGlu-C20 diacid])TNAEI[Nle]AEV-NH2), the EC50 [1, 5] is reported as 0.126 nM and the EC50 [2, 6] is reported as 63.1 nM.

For `CCCC[C@H](NC(=O)[C@@H](NC(=O)[C@H](CCC(=O)O)NC(=O)[C@H](C)NC(=O)[C@H](CC(N)=O)NC(=O)C(C)(C)NC(=O)[C@H](CCCCNC(=O)COCCOCCNC(=O)COCCOCCNC(=O)CC[C@H](NC(=O)CC[C@H](NC(=O)CCCCCCCCCCCCCCCCCCC(=O)O)C(=O)O)C(=O)O)NC(=O)[C@H](C)NC(=O)[C@H](CCC(N)=O)NC(=O)[C@H](CCC(=O)O)NC(=O)[C@H](CCCNC(=N)N)NC(=O)[C@H](C)NC(=O)[C@H](C)NC(=O)[C@H](CCCNC(=N)N)NC(=O)[C@H](C)NC(=O)[C@H](CCCNC(=N)N)NC(=O)[C@H](C)NC(=O)[C@H](CCC(N)=O)NC(=O)[C@@H](NC(=O)[C@H](CC(C)C)NC(=O)[C@H](CC(C)C)NC(=O)[C@@H](NC(=O)[C@H](CCC(N)=O)NC(=O)[C@H](CC(C)C)NC(=O)[C@H](CC(C)C)NC(=O)CNC(=O)[C@@H](NC(=O)[C@@H]1CCCN1C(=O)[C@@H](NC(=O)[C@H](CC(=O)O)NC(=O)[C@H](CC(C)C)NC(=O)[C@H](CO)NC(=O)[C@H](CC(C)C)NC(=O)[C@@H](NC(=O)[C@@H](NC)[C@@H](C)CC)C(C)C)C(C)C)[C@@H](C)CC)[C@@H](C)CC)[C@@H](C)O)[C@@H](C)CC)C(=O)N[C@@H](C)C(=O)N[C@@H](CCC(=O)O)C(=O)N[C@H](C(N)=O)C(C)C` [compound 134] (H-[NMeI]VLSLDVPIGLLQILLTQARARAAREQAK([AEEA-AEEA-γGlu-γGlu-C20 diacid])[Aib]NAEI[Nle]AEV-NH2), the EC50 [1, 3] was 0.00794 nM and the EC50 [2, 4] was 794 nM.

In the case of `CC[C@H](C)[C@H](N)C(=O)N[C@H](C(=O)N[C@@H](CC(C)C)C(=O)N[C@@H](CO)C(=O)N[C@@H](CC(C)C)C(=O)N[C@@H](CC(=O)O)C(=O)N[C@H](C(=O)N1CCC[C@H]1C(=O)N[C@H](C(=O)NCC(=O)N[C@@H](CC(C)C)C(=O)N[C@@H](CC(C)C)C(=O)N[C@@H](CCC(N)=O)C(=O)N[C@H](C(=O)N[C@@H](CC(C)C)C(=O)N[C@@H](CC(C)C)C(=O)N[C@@H](CCC(=O)O)C(=O)N[C@@H](CCC(N)=O)C(=O)N[C@@H](C)C(=O)N[C@@H](CCCNC(=N)N)C(=O)N[C@@H](C)C(=O)N[C@@H](CCCNC(=N)N)C(=O)N[C@@H](C)C(=O)N[C@@H](CC(C)C)C(=O)N[C@@H](CCCNC(=N)N)C(=O)N[C@@H](CCC(=O)O)C(=O)N[C@@H](CCC(=O)O)C(=O)N[C@@H](C)C(=O)N[C@@H](CCCCNC(=O)COCCOCCNC(=O)COCCOCCNC(=O)CC[C@H](NC(=O)CC[C@H](NC(=O)CCCCCCCCCCCCCCCCCCC(=O)O)C(=O)O)C(=O)O)C(=O)N[C@H](C(=O)N[C@@H](CC(N)=O)C(=O)N[C@@H](C)C(=O)N[C@@H](CCC(=O)O)C(=O)N[C@H](C(=O)N[C@@H](CC(C)C)C(=O)N[C@@H](C)C(=O)N[C@@H](CCC(=O)O)C(=O)N[C@H](C(N)=O)C(C)C)[C@@H](C)CC)[C@@H](C)O)[C@@H](C)CC)[C@@H](C)CC)C(C)C)C(C)C` [compound 50] (H-IVLSLDVPIGLLQILLEQARARALREEAK([AEEA-AEEA-γGlu-γGlu-C20 diacid])TNAEILAEV-NH2), the EC50 [1, 5] is reported as 2 nM and the EC50 [2, 6] is reported as 158000 nM.

— patent EP4810052A2, “HCRHR2 SELECTIVE POLYPEPTIDES” (Gubra A/S, priority 2023, dated 2026)
